Results taken from patent US20020137929A1, “1 - (3-heterocyclylphenyl) isothiourea, -isourea, -guanidine and -amidine herbicidal agents” (Intellectual Property Department, BASF Aktiengesellschaft, priority 1998, published 2002).

Key:
AMBEL (Ragweed, Common) [1] = experiment: Postemergence herbicidal evaluation; format: in vivo, Ambrosia artemisifolia; conditions: postemergence
Procedure, shortened: (§1)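 Two-week seedlings sprayed postemergence at 40 psi; formulation: 1:1 acetone/water, 0.5% TWEEN 20; application ≈0.0156–0.500 kg/ha. Greenhouse grow-out, then 0–9 visual scoring at 4–5 weeks.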

CASOB (Sicklepod) [2] = experiment: Postemergence herbicidal evaluation; format: in vivo, Cassia obtusifolia; conditions: postemergence
Procedure, shortened: as §1

[3] = test system: CHEAL (Lambsquarters, Common); experiment: Postemergence herbicidal evaluation; format: in vivo, Chenopodium album; conditions: postemergence
Procedure, shortened: as §1

[4] = test system: IPOHE (Morningglory, Ivyleaf); experiment: Postemergence herbicidal evaluation; format: in vivo, Ipomoea hederacea; conditions: postemergence
Procedure, shortened: as §1

ECHCG (Barnyardgrass) = experiment: Postemergence herbicidal evaluation; format: in vivo, Echinochloa crus-galli; conditions: postemergence
Procedure, shortened: as §1

[5] = test system: GLXMAW (Soybean, Williams); experiment: Postemergence herbicidal evaluation; format: in vivo, Glycine max, (L.) Merr. cv Williams; conditions: postemergence
Procedure, shortened: as §1

[6] = test system: TRZAWR (Wheat, Winter, cv Riband); experiment: Postemergence herbicidal evaluation; format: in vivo, Triticum aestivum; conditions: postemergence
Procedure, shortened: as §1

ABUTH (Velvetleaf) = experiment: Preemergence herbicidal evaluation; format: in vivo, Abutilon theophrasti; conditions: preemergence, rated 4-5 weeks after treatment, 0-9 scale
Procedure, shortened: (§2)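 Herbicidal effect scored visually, 0-9, at 4 to 5 weeks against a control; compound applied preemergence by aqueous acetone spray to seeded soil at about 0.0156 to 0.500 kg/ha.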

AMBEL (Ragweed, Common) [7] = experiment: Preemergence herbicidal evaluation; format: in vivo, Ambrosia artemisifolia; conditions: preemergence, rated 4-5 weeks after treatment, 0-9 scale
Procedure, shortened: as §2

CASOB (Sicklepod) [8] = experiment: Preemergence herbicidal evaluation; format: in vivo, Cassia obtusifolia; conditions: preemergence, rated 4-5 weeks after treatment, 0-9 scale
Procedure, shortened: as §2

[9] = test system: CHEAL (Lambsquarters, Common); experiment: Preemergence herbicidal evaluation; format: in vivo, Chenopodium album; conditions: preemergence, rated 4-5 weeks after treatment, 0-9 scale
Procedure, shortened: as §2

[10] = test system: IPOHE (Morningglory, Ivyleaf); experiment: Preemergence herbicidal evaluation; format: in vivo, Ipomoea hederacea; conditions: preemergence, rated 4-5 weeks after treatment, 0-9 scale
Procedure, shortened: as §2

[11] = test system: GLXMAW (Soybean, Williams); experiment: Preemergence herbicidal evaluation; format: in vivo, Glycine max, (L.) Merr. cv Williams; conditions: preemergence, rated 4-5 weeks after treatment, 0-9 scale
Procedure, shortened: as §2

ORYSAT (Rice, Tebonnet) = experiment: Preemergence herbicidal evaluation; format: in vivo, Oryza sativa, (L.) Tebonnet; conditions: preemergence, rated 4-5 weeks after treatment, 0-9 scale
Procedure, shortened: as §2

MOOVA (Monochoria) = experiment: Preemergence weed control under flooded paddy conditions; format: in vivo, Monochoria vaginalis; conditions: rated 3-4 weeks after treatment
Procedure, shortened: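 Herbicidal effect is scored visually on a 0-9 scale against an untreated control, three to four weeks after compounds are pipetted into the flood water (1.5 to 3 cm deep) over seeds planted in silt loam at 0.5 cm depth. Rates: about 0.0313 to 0.500 kg/ha.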

C=CCN1C(=O)C(CC(=O)NS(C)(=O)=O)SC1=Nc1cc(-n2c(=O)cc(C(F)(F)F)n(C)c2=O)c(F)cc1Cl (centres unmarked) [Compound 96, 3-Allyl-2-{{2-chloro-5-[3,6-dihydro-3-methyl-2,6-dioxo-4-(trifluoromethyl)-1(2H)-pryimidinyl]-4-fluorophenyl}imino}-N-(methylsulfonyl)-4-oxo-5-thiazolidineacetamide]
AMBEL herbicidal rating (AMBEL (Ragweed, Common) [1]; rate 0.0156 kg/ha): 3.0
AMBEL herbicidal rating (AMBEL (Ragweed, Common) [1]; rate 0.0313 kg/ha): 4.0
AMBEL herbicidal rating (AMBEL (Ragweed, Common) [1]; rate 0.0625 kg/ha): 7.0
AMBEL herbicidal rating (AMBEL (Ragweed, Common) [1]; rate 0.1250 kg/ha): 7.0
CASOB herbicidal rating (CASOB (Sicklepod) [2]; rate 0.0156 kg/ha): 0.0
CASOB herbicidal rating (CASOB (Sicklepod) [2]; rate 0.0313 kg/ha): 0.0
CASOB herbicidal rating (CASOB (Sicklepod) [2]; rate 0.0625 kg/ha): 1.0
CASOB herbicidal rating (CASOB (Sicklepod) [2]; rate 0.1250 kg/ha): 0.0
CHEAL herbicidal rating ([3]; rate 0.0156 kg/ha): 2.0
CHEAL herbicidal rating ([3]; rate 0.0313 kg/ha): 2.0
IPOHE herbicidal rating ([4]; rate 0.0156 kg/ha): 6.0
IPOHE herbicidal rating ([4]; rate 0.0313 kg/ha): 9.0
IPOHE herbicidal rating ([4]; rate 0.0625 kg/ha): 9.0
IPOHE herbicidal rating ([4]; rate 0.1250 kg/ha): 9.0
ECHCG herbicidal rating (ECHCG (Barnyardgrass); rate 0.0156 kg/ha): 0.0
ECHCG herbicidal rating (ECHCG (Barnyardgrass); rate 0.0313 kg/ha): 0.0
ECHCG herbicidal rating (ECHCG (Barnyardgrass); rate 0.0625 kg/ha): 2.0
ECHCG herbicidal rating (ECHCG (Barnyardgrass); rate 0.1250 kg/ha): 2.0
GLXMAW herbicidal rating ([5]; rate 0.0156 kg/ha): 4.0
GLXMAW herbicidal rating ([5]; rate 0.0313 kg/ha): 4.5
GLXMAW herbicidal rating ([5]; rate 0.0625 kg/ha): 4.0
GLXMAW herbicidal rating ([5]; rate 0.1250 kg/ha): 3.0
TRZAWR herbicidal rating ([6]; rate 0.0156 kg/ha): 2.0
TRZAWR herbicidal rating ([6]; rate 0.0313 kg/ha): 2.5
TRZAWR herbicidal rating ([6]; rate 0.0625 kg/ha): 2.5
TRZAWR herbicidal rating ([6]; rate 0.1250 kg/ha): 3.0
ABUTH rating (ABUTH (Velvetleaf); 0.0313 kg/ha): 1.0
ABUTH rating (ABUTH (Velvetleaf); 0.0625 kg/ha): 9.0
ABUTH rating (ABUTH (Velvetleaf); 0.1250 kg/ha): 9.0
ABUTH rating (ABUTH (Velvetleaf); 0.2500 kg/ha): 9.0
ABUTH rating (ABUTH (Velvetleaf); 0.5000 kg/ha): 9.0
AMBEL rating (AMBEL (Ragweed, Common) [7]; 0.0313 kg/ha): 0.0
AMBEL rating (AMBEL (Ragweed, Common) [7]; 0.0625 kg/ha): 0.0
AMBEL rating (AMBEL (Ragweed, Common) [7]; 0.1250 kg/ha): 1.0
AMBEL rating (AMBEL (Ragweed, Common) [7]; 0.2500 kg/ha): 4.0
AMBEL rating (AMBEL (Ragweed, Common) [7]; 0.5000 kg/ha): 6.0
CASOB rating (CASOB (Sicklepod) [8]; 0.0313 kg/ha): 0.0
CASOB rating (CASOB (Sicklepod) [8]; 0.0625 kg/ha): 0.0
CASOB rating (CASOB (Sicklepod) [8]; 0.1250 kg/ha): 0.0
CASOB rating (CASOB (Sicklepod) [8]; 0.2500 kg/ha): 4.0
CASOB rating (CASOB (Sicklepod) [8]; 0.5000 kg/ha): 9.0
CHEAL rating ([9]; 0.0313 kg/ha): 2.0
CHEAL rating ([9]; 0.0625 kg/ha): 2.0
CHEAL rating ([9]; 0.1250 kg/ha): 3.0
CHEAL rating ([9]; 0.2500 kg/ha): 9.0
CHEAL rating ([9]; 0.5000 kg/ha): 9.0
IPOHE rating ([10]; 0.0313 kg/ha): 0.0
IPOHE rating ([10]; 0.0625 kg/ha): 0.0
IPOHE rating ([10]; 0.1250 kg/ha): 1.0
IPOHE rating ([10]; 0.2500 kg/ha): 9.0
IPOHE rating ([10]; 0.5000 kg/ha): 9.0
GLXMAW rating ([11]; 0.0313 kg/ha): 0.0
GLXMAW rating ([11]; 0.0625 kg/ha): 0.0
GLXMAW rating ([11]; 0.1250 kg/ha): 0.0
GLXMAW rating ([11]; 0.2500 kg/ha): 3.0
GLXMAW rating ([11]; 0.5000 kg/ha): 4.0
ORYSAT rating (ORYSAT (Rice, Tebonnet); 0.0313 kg/ha): 0.0
ORYSAT rating (ORYSAT (Rice, Tebonnet); 0.0625 kg/ha): 0.0
ORYSAT rating (ORYSAT (Rice, Tebonnet); 0.1250 kg/ha): 0.0
ORYSAT rating (ORYSAT (Rice, Tebonnet); 0.2500 kg/ha): 1.0
ORYSAT rating (ORYSAT (Rice, Tebonnet); 0.5000 kg/ha): 2.0
MOOVA herbicidal effect rating (MOOVA (Monochoria); 0.0313 kg/ha): 2.0
MOOVA herbicidal effect rating (MOOVA (Monochoria); 0.0625 kg/ha): 2.0
MOOVA herbicidal effect rating (MOOVA (Monochoria); 0.1250 kg/ha): 3.0
MOOVA herbicidal effect rating (MOOVA (Monochoria); 0.2500 kg/ha): 3.0
